We go through 35 compounds from patent US8778966B2, “Quinolinone derivatives as PARP and tank inhibitors” (Janssen Pharmaceutica, NV, priority 2007, dated 2014).

In one data set the target is T1, TANK-2 enzyme (Homo sapiens, UniProt Q9H2K2).
T1 construct: made in house
T1 sequence (Q9H2K2 1-1166): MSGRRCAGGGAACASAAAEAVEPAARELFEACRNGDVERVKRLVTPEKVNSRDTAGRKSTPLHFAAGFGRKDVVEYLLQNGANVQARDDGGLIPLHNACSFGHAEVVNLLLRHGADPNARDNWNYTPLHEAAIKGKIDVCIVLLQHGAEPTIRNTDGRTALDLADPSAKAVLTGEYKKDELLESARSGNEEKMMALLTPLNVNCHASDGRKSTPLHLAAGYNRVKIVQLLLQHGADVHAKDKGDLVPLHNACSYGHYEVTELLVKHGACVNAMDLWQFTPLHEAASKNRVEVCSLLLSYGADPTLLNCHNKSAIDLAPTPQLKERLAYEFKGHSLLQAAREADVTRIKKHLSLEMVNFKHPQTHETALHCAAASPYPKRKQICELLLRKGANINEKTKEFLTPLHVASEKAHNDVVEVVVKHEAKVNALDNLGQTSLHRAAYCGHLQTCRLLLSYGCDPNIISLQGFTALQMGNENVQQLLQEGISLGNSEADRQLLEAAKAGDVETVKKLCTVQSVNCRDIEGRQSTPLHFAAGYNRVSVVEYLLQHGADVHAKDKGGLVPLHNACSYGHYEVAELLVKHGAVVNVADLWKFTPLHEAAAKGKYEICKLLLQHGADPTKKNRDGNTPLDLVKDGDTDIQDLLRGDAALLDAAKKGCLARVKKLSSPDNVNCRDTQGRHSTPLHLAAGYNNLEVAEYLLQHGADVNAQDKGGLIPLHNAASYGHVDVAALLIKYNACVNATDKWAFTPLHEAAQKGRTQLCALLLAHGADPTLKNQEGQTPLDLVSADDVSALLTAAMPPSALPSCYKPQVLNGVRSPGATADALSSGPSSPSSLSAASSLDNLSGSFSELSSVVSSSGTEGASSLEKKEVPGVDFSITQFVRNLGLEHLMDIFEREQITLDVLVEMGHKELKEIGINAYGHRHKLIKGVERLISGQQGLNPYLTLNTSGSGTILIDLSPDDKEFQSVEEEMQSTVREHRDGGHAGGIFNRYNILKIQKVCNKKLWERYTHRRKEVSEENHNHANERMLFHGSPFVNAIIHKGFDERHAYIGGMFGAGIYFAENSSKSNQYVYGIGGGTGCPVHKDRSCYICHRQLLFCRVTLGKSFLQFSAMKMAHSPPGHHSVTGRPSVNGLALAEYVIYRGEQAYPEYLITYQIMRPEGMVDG
Put plainly: In vitro Scintillation Proximity Assay (SPA) for TANK-2 inhibitory activity. Conditions: read-out: in vitro SPA assay TANK-2 pIC50 (converted). The class given is biochemical. The method, boiled down:
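Results are pIC50 values, with IC50 interpolated linearly around 50% of blank-subtracted control cpm. They come from a scintillation proximity read of TANK-2 (8 μg/ml) self-modification with [3H]-NAD+/NAD, incubated 120 min at room temperature in pH 7.4 Tris buffer containing MgCl2 and DTT. Compounds were first screened at 10^−5 M.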

A further data set deals with tubulin. As to the kind of experiment: Tubulin polymerization assay. As to conditions: tested at 20 μM and 5 μM. It counts as biochemical. Also noted: key: a compound showing 0 to 50% inhibition at 20 μM is reported as score 1; Score 2 compounds are defined as compound showing more than 50% inhibition at 20 μM and less than 50% inhibition at 5 μM; a compound showing more than 50% inhibition at 5 μM is reported as score 3. On the procedure: The tubulin polymerization assay is an adaptation of an assay originally described by Bonne, D. et al. (J. Biol. Chem., 1985, 260:2819-25). The assay kit was purchased from Cytoskeleton, Inc. (catalogue number BK011) and the assay was performed as described by the supplier with the following modifications. The assay was run in a 384-well black Proxiplate (Perkin Elmer) and volumes were adapted accordingly. The reactions were carried out in a final volume of 10 μl. Compounds were added to 25 μl of the reaction mix in 96-well PP plates (Corning) on ice and 10 μl of this mixture was dispensed into duplicates of the 384-well Proxiplates pre-warmed to 37° C. in a Fluoroskan Ascent plate reader (Thermo Scientific). Fluorescence measurements were taken every minute for one hour. The maximum slope of each well was determined (linear regression through 4 consecutive points) and polymerization was calculated as a percentage of polymerization observed in the absence of compound. Compounds were first measured at a concentration of 20 μM and then at 5 μM for those showing more than 50% inhibition at 20 μM as compared to the polymerization observed in the absence of compound. Results are reported in Table F-2 as scores defined as: a compound showing 0 to 50% inhibition at 20 μM is reported as score 1; a compound showing more than 50% inhibition at 5 μM is reported as score 3.

On to `CCc1cc2ccc([C@](C)(C#N)[C@H]3CCOc4ccccc43)cc2[nH]c1=O` (single isomer, unassigned) [Compound 394], for which the IC50 at TANK-2 enzyme was 1 µM. For the same compound, in the data set on tubulin, the tubulin polymerisation score is listed as 1 (a compound showing 0 to 50% inhibition at 20 μM is reported as score 1). The matching figures for `CCc1cc2ccc([C@@](C)(C#N)[C@H]3CCOc4ccccc43)cc2[nH]c1=O` (single isomer, unassigned) [Compound 395]: 0.501 µM and 2. On to `CCc1cc2ccc(C(C)(C#N)Cc3cccc(-c4cnn(C)c4)c3)cc2[nH]c1=O` (centres unmarked) [Compound 17], for which the melting point is 170 °C. The IC50 on TANK-2 enzyme is 0.0501 µM. The matching figures for `CCc1cc2ccc(C(C)(C#N)Cc3cccc(-c4ccccc4)c3)cc2[nH]c1=O` (centres unmarked) [Compound 18]: 192 °C and 0.251 µM.

On to `CCc1cc2ccc(C(C)(C#N)Cc3cccc(N(C)C)c3)cc2[nH]c1=O` (centres unmarked) [Compound 20], for which the melting point is 193 °C. In addition, the IC50 at TANK-2 enzyme was 0.0631 µM. `CCc1cc2ccc(C(C)(C#N)Cc3cccc(N4CCOCC4)c3)cc2[nH]c1=O` (centres unmarked) [Compound 21] had a melting point of 162 °C. Further, the IC50 on TANK-2 enzyme is 0.0631 µM. The like results for `CCc1cc2ccc(C(C)(C#N)Cc3cccc(O)c3)cc2[nH]c1=O` (centres unmarked) [Compound 22] were, in that order, 217 °C and 0.0501 µM. The like results for `CCc1cc2ccc(C(C)(C#N)Cc3cccc(OCc4ccccc4)c3)cc2[nH]c1=O` (centres unmarked) [Compound 23] were, in that order, 150 °C and 0.2 µM. The matching figures for `CCc1cc2ccc(C(C)(C#N)Cc3cccc(OCCOC)c3)cc2[nH]c1=O` (centres unmarked) [Compound 24]: 134 °C and 0.0794 µM. On to `CCC(=O)c1cccc(CC(C)(C#N)c2ccc3cc(C)c(=O)[nH]c3c2)c1` (centres unmarked) [Compound 173], for which the IC50 on TANK-2 enzyme is 1.26 µM. Further, the tubulin polymerisation score in the data set on tubulin is listed as 3 (a compound showing more than 50% inhibition at 5 μM is reported as score 3). Turning to `Cc1cc2ccc(C(C)(C#N)C3CCc4ccc(Br)cc43)cc2[nH]c1=O` (centres unmarked) [Compound 249], the IC50 at TANK-2 enzyme was 2.51 µM. For the same compound, the tubulin polymerisation score in the data set on tubulin turned out to be 2.

As to `CCc1cc2ccc(C(C#N)(CC)Cc3cccc(C#N)c3)cc2[nH]c1=O` (centres unmarked) [Compound 265], at TANK-2 enzyme, the IC50 is 0.1 µM. In the data set with tubulin, the tubulin polymerisation score was found to be 2. The like results for `CCc1cc2ccc(C(C)(C#N)Cc3cc(F)cc(C#N)c3)cc2[nH]c1=O` (centres unmarked) [Compound 266] were, in that order, 0.0251 µM and 3 (a compound showing more than 50% inhibition at 5 μM is reported as score 3).

With `CCc1cc2ccc(C(C#N)(CC)Cc3cccc(OC)c3)cc2[nH]c1=O` (centres unmarked) [Compound 287], on TANK-2 enzyme, the IC50 is 1 µM. This compound also had a tubulin polymerisation score with tubulin of 2. With `CCOc1cc(C#N)nc(CC(C)(C#N)c2ccc3cc(CC)c(=O)[nH]c3c2)n1` (centres unmarked) [Compound 315], the IC50 at TANK-2 enzyme is 0.1 µM. The same compound came in with a tubulin polymerisation score in the data set on tubulin of 2.

As to `CCc1cc2ccc(C(C#N)(CC)Cc3nc(C#N)cc(OC)n3)cc2[nH]c1=O` (centres unmarked) [Compound 316], at TANK-2 enzyme, the IC50 is 0.126 µM. In the data set on tubulin, this compound yielded a tubulin polymerisation score of 2.

For the compound `CCc1cc2ccc(C(C#N)(CC)Cc3nc(OC)cc(OC)n3)cc2[nH]c1=O` (centres unmarked) [Compound 321], at TANK-2 enzyme, the IC50 was 0.158 µM. Besides, the tubulin polymerisation score in the data set on tubulin stood at 2. The like results for `CCc1cc2ccc(C(C)(C#N)Cc3ccnc(C#N)c3)cc2[nH]c1=O` (centres unmarked) [Compound 324] were, in that order, 0.02 µM and 1 (a compound showing 0 to 50% inhibition at 20 μM is reported as score 1). The matching figures for `CCc1cc2ccc(C(C)(C#N)Cc3cc(C)nc(C#N)c3)cc2[nH]c1=O` (centres unmarked) [Compound 328]: 0.02 µM and 2. Consider `CCc1cc2ccc(C(C)(C#N)Cc3cccc(F)n3)cc2[nH]c1=O` (centres unmarked) [Compound 331], for which, on TANK-2 enzyme, the IC50 was 0.0794 µM. This compound returned a tubulin polymerisation score in the data set with tubulin of 2.

As to `CCc1cc2ccc([C@](C)(C#N)Cc3cc(F)cc(F)c3)cc2[nH]c1=O` [Compound 333], the IC50 on TANK-2 enzyme was 0.0794 µM. In addition, in the data set on tubulin, the tubulin polymerisation score is reported as 1 (a compound showing 0 to 50% inhibition at 20 μM is reported as score 1).

As to `CCc1cc2ccc(C(C)(C#N)Cc3ccc(C(F)(F)F)nc3C)cc2[nH]c1=O` (centres unmarked) [Compound 340], at TANK-2 enzyme, the IC50 was 0.794 µM. The tubulin polymerisation score with tubulin is 1 (a compound showing 0 to 50% inhibition at 20 μM is reported as score 1).

For the compound `CCc1cc2ccc(C(C#N)(CC)Cc3cccc(C#N)n3)cc2[nH]c1=O` (centres unmarked) [Compound 342], the IC50 at TANK-2 enzyme was 0.0398 µM. In addition, the tubulin polymerisation score with tubulin is on record as 3 (a compound showing more than 50% inhibition at 5 μM is reported as score 3).

On to `CCc1cc2ccc(C(C)(C#N)CCOc3ncc(Br)cn3)cc2[nH]c1=O` (centres unmarked) [Compound 349], for which the IC50 on TANK-2 enzyme is 0.2 µM. In the data set on tubulin, this compound showed a tubulin polymerisation score of 2. The like results for `CCc1cc2ccc(C(C)(C#N)Cc3nc(C)cc(OC)n3)cc2[nH]c1=O` (centres unmarked) [Compound 371] were, in that order, 0.126 µM and 1 (a compound showing 0 to 50% inhibition at 20 μM is reported as score 1). The like results for `CCc1cc2ccc(C(C)(C#N)CN3CCN(c4ncc(Br)cn4)CC3)cc2[nH]c1=O` (centres unmarked) [Compound 374] were, in that order, 0.501 µM and 2. The like results for `CCc1cc2ccc(C(C)(C#N)CN3CCc4ccccc4C3)cc2[nH]c1=O` (centres unmarked) [Compound 376] were, in that order, 0.2 µM and 1 (a compound showing 0 to 50% inhibition at 20 μM is reported as score 1).

Consider `CCc1cc2ccc(C(C#N)(CC)Cc3cccc(CN)c3)cc2[nH]c1=O` (centres unmarked) [Compound 390], for which the IC50 on TANK-2 enzyme is 0.316 µM. Consider `CCc1cc2ccc([C@](C)(C#N)C[C@H]3Cc4ccccc4O3)cc2[nH]c1=O` [Compound 397], for which, on TANK-2 enzyme, the IC50 was 0.1 µM. Also, the tubulin polymerisation score in the data set on tubulin is 1 (a compound showing 0 to 50% inhibition at 20 μM is reported as score 1). Turning to `CCc1cc2ccc(C(C)(C#N)CC3Oc4ccccc4O3)cc2[nH]c1=O` (centres unmarked) [Compound 398], the IC50 on TANK-2 enzyme is 0.501 µM. In the data set on tubulin, this compound registered a tubulin polymerisation score of 2.

As for `CCc1cc2ccc(C(C)(C#N)Cc3cc(F)cc(F)c3)cc2[nH]c1=O` (centres unmarked) [Compound 402], the IC50 at TANK-2 enzyme was 0.126 µM. In the data set on tubulin, the tubulin polymerisation score is 1 (a compound showing 0 to 50% inhibition at 20 μM is reported as score 1). With `CCc1cc2ccc(C(C#N)(CC)C3CCc4ccc(OC)cc43)cc2[nH]c1=O` (centres unmarked) [Compound 403], the IC50 on TANK-2 enzyme is 2.51 µM. Same read-out and setting: under `Cc1cc2ccc([C@@](C)(C#N)[C@H]3CCc4ccc(Br)cc43)cc2[nH]c1=O` [Compound 405] stands 5.01 µM; under `Cc1cc2ccc([C@](C)(C#N)[C@@H]3CCc4ccc(Br)cc43)cc2[nH]c1=O` [Compound 406], 5.01 µM; under `Cc1cc2ccc([C@](C)(C#N)[C@H]3CCc4ccc(Br)cc43)cc2[nH]c1=O` [Compound 407], 6.31 µM.
